# Test results as given in patent US7538252B2, “Drug design for tubulin inhibitors, compositions, and methods of treatment thereof” (BiPar Sciences, Inc., priority 2006, dated 2009).
# Tests used:
# HeLa cells = test: TUNEL apoptosis assay with flow cytometry; type: cell-based; details: FIG. 7, compared to control DIPE
# Excerpt: Programmed cell death (apoptosis) is an important homeostatic mechanism in the immune and other systems. The phenomenon of nuclear disintegration during apoptosis can be used as a marker to detect cells undergoing this process. While a variety of methods are available to detect apoptotic cells the TUNEL assay allows the rapid phenotypic identification of individual apoptotic cells using flow cytometry (FACS). Terminal transferase dUTP nick end labeling (TUNEL) is a common method for detecting DNA fragmentation that results from apoptosis. The assay based on the presence of nicks in the DNA that can be identified by terminal transferase, an enzyme that will catalyze the addition of dUTPs that are secondarily labeled with a marker. It may also label cells undergoing necrosis or cells that have suffered severe DNA damage.
# Hela cells were obtained from ATCC. For DNA content analysis, 2×10^5 cells were washed twice with PBS and fixed in 70% ethanol. Cells were treated with 100 units/mL RNase A for 20 minutes at 37° C., resuspended in cold PBS containing Alexa Fluor® 405 fluorescent stain (Invitrogen) according to the manufacturer's protocol. Cells were analyzed by flow cytometry to characterize the cell cycle. […]
# HCT116 and Hela cells = test: Cell cycle analysis by flow cytometry; type: cell-based; details: FIG. 6, compared to control DIPE
# Procedure: HCT116 and Hela cells were obtained from ATCC. For DNA content analysis, 2×10^5 cells were washed twice with PBS and fixed in 70% ethanol. Cells were treated with 100 units/mL RNase A for 20 minutes at 37° C., resuspended in cold PBS containing Alexa Fluor® 405 fluorescent stain (Invitrogen) according to the manufacturer's protocol. Cells were analyzed by flow cytometry.
# For DNA replication analysis, 2×10^5 cells were incubated with 50 μmol/L bromodeoxyuridine (BrdUrd) for 30 minutes. Cells were fixed in 70% ethanol and BrdUrd incorporation was determined by flow cytometric analysis using an anti-BrdUrd-FITC antibody (Becton Dickinson, Franklin Lakes, N.J.) according to the manufacturer's protocol. To assess the degree of G2/M checkpoint, mitotic cells were detected by flow cytometry using the mitosis-specific antibody GF-7. Fixed cells were incubated for 30 minutes with GF7-phycoerythrin (PE) antibody (BD Biosciences Pharmingen), washed with PBS and analyzed by flow cytometry. FIG. 6 compares the results obtained with DIPE and formula IIIB.
# TNF-alpha mRNA = TNF-alpha mRNA level in LPS-stimulated PU5-1.8 macrophages (Northern blot); type: cell-based, murine
# Procedure: This example provides an assay that can be used to screen compounds of Formula I for their ability to reduce the expression of cytokines (e.g., TNF-alpha) in a mammal.
# The murine macrophage PU5-1.8 cell line is purchased from the American Type Culture Collection (ATCC, Rockville, Md.). Cells are grown in DMEM medium supplemented with […] sodium pyruvate, 0.1 mM nonessential amino acids, 2 mM glutamine and 5% fetal bovine serum (Life Technologies, Staten Island, N.Y.). Cells are maintained in a humidified atmosphere of 5% CO2-95% air at 37° C. Cells are passaged twice weekly by firmly tapping the side of the flask to dislodge the adherent cells. Both non-adherent and adherent cells are passaged. Exponentially growing cells are seeded at 5×10^5/mL, 4 mL per 60-mm dish 24 h prior to the experiment. Test compounds are delivered in 1 mL volumes of the medium added to each dish at the start of the experiment. All dishes are incubated at 37° C. in 5% CO2-95% air for 3 h.
# The Tumor Necrosis Factor (TNF-alpha) cDNA is obtained from the ATCC (Rockville, Md.). […]
# Hybridized bands are quantified by analyzing the images obtained by using a video densitometer (Applied Imaging Corporation, Santa Clara, Calif.). […]
# Treatment of PU5-1.8 murine macrophages with LPS (100 ng/mL) for 3 h results in a significant increase (>7 fold) in the level of TNF-alpha mRNA as determined by Northern blot analysis. […]
SMILES,induction of apoptosis (HeLa cells),cell-cycle arrest (HCT116 and Hela cells),"inhibition of TNF-alpha mRNA accumulation (TNF-alpha mRNA; 10 μM added to LPS (100 ng/mL) treated cultures, 3 h) [%]","effect on TNF-alpha mRNA expression (TNF-alpha mRNA; 10 μM, cells without LPS)"
"COc1ccc(Oc2c(I)cc(C(C)=O)cc2I)cc1N [Formula IIIB, 1-(4-(3-amino-4-methoxyphenoxy)-3,5-diiodophenyl)ethanone]",induction of apoptosis,cell-cycle arrest,–,–
COc1cc2c(c(OC)c1OC)-c1ccc(OC)c(=O)cc1[C@@H](NC(C)=O)CC2 [colchicine],–,–,68,no effect
